Assay results from patent US20260250337A1, “HYBRID ANTIMICROBIAL PEPTIDES” (UNIVERSIDADE FEDERAL DO ABC, priority 2023, published 2026).
Entries after “also recorded” stand apart in the source; their conditions may differ. No end group written: not given here.

What was measured:
E. cloacae β-12 = experiment: Liquid growth inhibition assay, MIC; type: cell-based, Enterobacter cloacae; conditions: 37° C., 18 h
Method: (§1) Initially, the antimicrobial activity was determined by liquid growth inhibition assays, as previously described by Pedron et al.^62. Briefly, Peptone Broth and Potato Dextrose Broth (Invitrogen) were used for antibacterial and antifungal assays, respectively. Two-fold serial dilutions of peptides (0.09-50 μmol L^−1) and microorganisms (Serratia marcescens ATCC 4112, Enterobacter cloacae β-12, Micrococcus luteus A270, Bacillus megaterium ATCC 10778, Bacillus subtilis ATCC 6633, Candida albicans MDM8, and Candida tropicalis IOC 4560) were incubated at 37° C. for 18 h (for bacteria) or 24 h (for fungi), and microbial growth was assessed by absorbance measurements at 595 nm. Experiments were performed in three biological repeats.

human erythrocytes = experiment: Hemolytic activity assay; type: cell-based; conditions: for Hemolytic activity, concentration of peptide needed to kill 10% of red blood cells / MHC: human erythrocytes, 1 h; for MHC: room temperature, concentration with approximately 0% of hemolytic activity; for hemolytic activity: 0.1 to 100 μmol L^−1
Method: Method. Assays against freshly collected human erythrocytes were performed following protocols described by Pedron et al. 62. Briefly, peptide aliquots at concentrations ranging from 0.1 to 100 μmol L−1 were incubated with a suspension of erythrocytes at room temperature for 1 h. The samples were then centrifuged, and the absorbance of the supernatant was measured at 405 nm. The MHC (maximal non-hemolytic concentration) was determined as the maximal concentration at which 100% of the erythrocytes were viable. The surfactant SDS and PBS buffer were used as positive88, 89 and negative controls, respectively. Sodium heparin was used as an anticoagulant when collecting human blood. Three biological repeats were performed.

[1] = test system: S. epidermidis ATCC 12228; experiment: Liquid growth inhibition assay, MIC; type: cell-based; conditions: 37° C., 18 h
C. tropicalis IOC 4560 = experiment: Liquid growth inhibition assay, MIC (antifungal); type: cell-based, Candida tropicalis; conditions: 37° C., 24 h
Method: as §1

M. luteus A270 = experiment: Liquid growth inhibition assay, MIC; type: cell-based, Micrococcus luteus; conditions: 37° C., 18 h
Method: as §1

[2] = Resistance to degradation in fetal bovine serum; type: in vitro ADME; conditions: for remaining at 0.5 h: read-out: remaining peptide, 30 min; for remaining at 1 h: read-out: remaining peptide, 1 h; for remaining at 2 h: read-out: remaining peptide, 2 h
Method: The resistance to proteolytic degradation of the hybrid peptides was assessed by exposing them for 6 h to serum peptidases in a fetal bovine serum solution^68, 69 (FIG. 5a and Table S4). The peptide degradation kinetics were calculated by integrating the peak area of the peak in relation to the peptide at the beginning of the experiment (time=0) and comparing it to the integrated peak area relative to the peptides after exposure to the enzymes at time points: 0.5, 1, 2, 4, and 6 h (FIG. 5a and Table S4). […] However, AV was resistant to degradation against proteases, with almost 40% peptide content remaining after 4 h of exposure (FIG. 5a and Table S4). […] VP was almost entirely degraded after 30 min (22% of peptide remaining). […] D-amino acid substitutions have been used as alternatives to prevent the degradation of AMPs. For example, Qiu et. al. described a protonectin analog with a D-Lys residue in position 10 as an alternative to protonectin; this analog is not degraded and has higher antimicrobial activity against bacteria and fungi than the original peptide.
Methods. Stability assays were performed following the protocol described by Torres et al.^71. Briefly, a peptide solution was added to GIBCO fetal bovine serum diluted to 25% in water and kept at 37° C. The degradation kinetics were monitored by liquid chromatography and the percentage of peptide remaining was calculated by integrating the peptide peak area. The experiments were performed as three independent replicates, and aliquots were taken at 0, 0.5, 1, 2, 4, and 6 h.

B. megaterium ATCC 10778 = experiment: Liquid growth inhibition assay, MIC; type: cell-based, Bacillus megaterium; conditions: 37° C., 18 h
Method: as §1

C. albicans MDM8 = experiment: Liquid growth inhibition assay, MIC (antifungal); type: cell-based, Candida albicans; conditions: 37° C., 24 h
Method: as §1

S. marcescens ATCC 4112 = experiment: Liquid growth inhibition assay, MIC; type: cell-based, Serratia marcescens; conditions: 37° C., 18 h
Method: as §1

bacterial strains = experiment: Antimicrobial activity over the panel of strains; type: cell-based; conditions: range over strains tested
Method: as §1
(§2) Method. The minimal inhibitory concentration (MIC) against the ESKAPE pathogens was determined using the broth microdilution method^81, 82 in Luria-Bertani (LB) medium. The MIC value was defined as the lowest concentration of peptide at which no microbial growth was observed. A. baumannii ATCC19606, E. coli ATCC11775, E. coli AIC221, E. coli AIC222, K. pneumoniae ATCC13883, S. aureus ATCC12600 P. aeruginosa PAO1, and P. aeruginosa PA14 were incubated on agar plates, and after 24 h, three isolated colonies were inoculated to 5 mL of Luria-Bertani (LB) broth and maintained at 37° C. overnight with shaking. Peptides were then added to 96-well polystyrene microtiter plates at concentrations ranging from 0 to 128 μmol L^−1, and 5×10^5 CFU mL^−1 of each bacterium was inoculated in each well. The plates were incubated at 37° C. for 24 h. Bacterial growth was measured using a microplate reader at 610 nm. Three independent replicates were performed.

E. coli AIC221 = experiment: Broth microdilution MIC, ESKAPE pathogens; type: cell-based; conditions: LB, 37° C., 24 h
Method: as §2

P. aeruginosa PA14 = experiment: Broth microdilution MIC, ESKAPE pathogens; type: cell-based; conditions: LB, 37° C., 24 h
Method: as §2

K. pneumoniae ATCC13883 = experiment: Broth microdilution MIC, ESKAPE pathogens; type: cell-based; conditions: LB, 37° C., 24 h
Method: as §2

E. coli AIC222 = experiment: Broth microdilution MIC, ESKAPE pathogens; type: cell-based; conditions: LB, 37° C., 24 h
Method: as §2

P. aeruginosa PAO1 = experiment: Broth microdilution MIC, ESKAPE pathogens; type: cell-based; conditions: LB, 37° C., 24 h
Method: as §2

E. coli ATCC11775 = experiment: Broth microdilution MIC, ESKAPE pathogens; type: cell-based; conditions: LB, 37° C., 24 h
Method: as §2

A. baumannii ATCC19606 = experiment: Broth microdilution MIC, ESKAPE pathogens; type: cell-based; conditions: LB, 37° C., 24 h
Method: as §2

S. aureus ATCC12600 = experiment: Broth microdilution MIC, ESKAPE pathogens; type: cell-based; conditions: LB, 37° C., 24 h
Method: as §2

[3] = test system: MCF-7 human breast cancer cells; experiment: Anticancer activity, MTT assay; type: cell-based; conditions: MTT
Method: The anticancer activity assays were performed using MCF-10A human breast epithelial cells and MCF-7 mammary cancer cells as previously described by Pedron et al. 86. Briefly, the day before treatment, the cells were incubated at 37° C. and 5% CO2 for 24 h. The cells were treated with peptides ranging from 12.5 to 100 μmol L^−1 (MCF10-A cells) and 0.8 to 100 μmol L^−1 (MCF-7 cells) for 4 h and 24 h at 37° C., and cell viability was measured using 3-(4,5-Dimethylthiazol-2-yl)-2,5-diphenyltetrazolium bromide (MTT) assays 87. Three independent replicates were performed in each case.

[4] = bovine, fetal bovine serum, 25% in water, fetal bovine serum 25% in water, 37° C., 30 min
[5] = bovine, fetal bovine serum, 25% in water, fetal bovine serum 25% in water, 37° C.

| Substance | MIC E. cloacae β-12 (E. cloacae β-12) | Hemolytic activity, concentration of peptide needed to kill 10% of red blood cells (human erythrocytes) | MHC (human erythrocytes) | MIC S. epidermidis ATCC 12228 [1] | MIC C. tropicalis IOC 4560 (C. tropicalis IOC 4560) | MIC M. luteus A270 (M. luteus A270) | remaining at 0.5 h [2, 4] | remaining at 1 h [2, 5] | remaining at 2 h [2, 5] | MIC B. megaterium ATCC 10778 (B. megaterium ATCC 10778) | MIC C. albicans MDM8 (C. albicans MDM8) | MIC S. marcescens ATCC 4112 (S. marcescens ATCC 4112) | hemolytic activity (human erythrocytes) | resistance to degradation ([2]; fetal bovine serum) | MIC E. coli AIC221 (E. coli AIC221) | MIC P. aeruginosa PA14 (P. aeruginosa PA14) | MIC K. pneumoniae ATCC13883 (K. pneumoniae ATCC13883) | MIC E. coli AIC222 (E. coli AIC222) | MIC P. aeruginosa PAO1 (P. aeruginosa PAO1) | MIC E. coli ATCC11775 (E. coli ATCC11775) | also measured |
| --- | --- | --- | --- | --- | --- | --- | --- | --- | --- | --- | --- | --- | --- | --- | --- | --- | --- | --- | --- | --- | --- |
| H-GLLKRIKTLL-NH2 [Anoplin, reference compound] | 3.1 µM | 50 µmol/L | 50 µmol/L | 6.3 µM | 1.6 µM | 1.6 µM | ~20% | ~20% | ~10% | 0.8 µM | 1.6 µM | 6.3 µM | – | – | – | – | – | – | – | – | – |
| FLGSLWRKAGTVF-NH2 [VD] | >50 µM | – | >100 µmol/L | >50 µM | 6.3 µM | 25 µM | ~10% | – | – | 6.3 µM | 25 µM | 12.5 µM | minimal hemolytic activity; also recorded: no hemolytic activity was detected | the greatest resistance to proteolytic degradation | – | – | – | – | – | – | MIC range of the peptide over the strains (bacterial strains): 6.3 to 25 µM; remaining at 6 h ([2]; bovine, fetal bovine serum, 25% in water, fetal bovine serum 25% in water, 37° C., 6 h, read-out: remaining peptide, 6 h): ~50% |
| FLGTLWGGAKGVF-NH2 [VP] | >50 µM | 100 µmol/L | >100 µmol/L | >50 µM | >50 µM | >50 µM | 22% | < 20% | < 10% | >50 µM | >50 µM | >50 µM | minimal hemolytic activity | – | 128 µM | 128 µM | 128 µM | 128 µM | 128 µM | 128 µM | MIC A. baumannii ATCC19606 (A. baumannii ATCC19606): 128 µM; MIC S. aureus ATCC12600 (S. aureus ATCC12600): 128 µM; remaining peptide, 30 min ([2]; fetal bovine serum 25% in water, 37° C., 30 min): ~20% |
| ILGTILGLLKGL-NH2 [Protonectin, reference compound] | 25 µM | 12.5 µmol/L | 12.5 µmol/L | 25 µM | 12.5 µM | 3.1 µM | – | – | – | 3.1 µM | 12.5 µM | 6.3 µM | – | quickly degraded | 16 µM | 128 µM | 64 µM | 8 µM | 128 µM | 16 µM | MCF-7 4 h LD50 ([3]; MCF-7, 4 h): 25 µmol/L; MCF-7 24 h LD50 ([3]; MCF-7, 24 h): 25 µmol/L; MIC A. baumannii ATCC19606 (A. baumannii ATCC19606): 16 µM; MIC S. aureus ATCC12600 (S. aureus ATCC12600): 8 µM |
